{
  "source": "patent US7482379B2",
  "about": "“Propenoyl hydrazides” (priority 2004, dated 2009)",
  "key": {"Cathepsin B": {"molecular_target": "Cathepsin B (Homo sapiens, UniProt P07858)", "experiment": "Cathepsin B incubation inhibition assay", "format": "biochemical", "conditions": "Table 4, cross reactivity of caspase inhibitors; listed as Cbz-Leu-Glu-Thr-AAsp-trans-CH═CH—COOEt", "description": "Papain and Cathepsin B. The incubation method was used to measure the irreversible inhibition of papain and cathepsin B. […] Pseudo first-order inactivation rate constants were obtained from plots of ln vt/vo versus time."}, "Calpain I": {"molecular_target": "T1, Calpain I (Sus scrofa, UniProt P35750)", "T1 construct": "by the incubation method with calpain I from porcine erythrocytes; from tissue; host or cells: porcine erythrocytes", "T1 sequence (P35750 1-714)": "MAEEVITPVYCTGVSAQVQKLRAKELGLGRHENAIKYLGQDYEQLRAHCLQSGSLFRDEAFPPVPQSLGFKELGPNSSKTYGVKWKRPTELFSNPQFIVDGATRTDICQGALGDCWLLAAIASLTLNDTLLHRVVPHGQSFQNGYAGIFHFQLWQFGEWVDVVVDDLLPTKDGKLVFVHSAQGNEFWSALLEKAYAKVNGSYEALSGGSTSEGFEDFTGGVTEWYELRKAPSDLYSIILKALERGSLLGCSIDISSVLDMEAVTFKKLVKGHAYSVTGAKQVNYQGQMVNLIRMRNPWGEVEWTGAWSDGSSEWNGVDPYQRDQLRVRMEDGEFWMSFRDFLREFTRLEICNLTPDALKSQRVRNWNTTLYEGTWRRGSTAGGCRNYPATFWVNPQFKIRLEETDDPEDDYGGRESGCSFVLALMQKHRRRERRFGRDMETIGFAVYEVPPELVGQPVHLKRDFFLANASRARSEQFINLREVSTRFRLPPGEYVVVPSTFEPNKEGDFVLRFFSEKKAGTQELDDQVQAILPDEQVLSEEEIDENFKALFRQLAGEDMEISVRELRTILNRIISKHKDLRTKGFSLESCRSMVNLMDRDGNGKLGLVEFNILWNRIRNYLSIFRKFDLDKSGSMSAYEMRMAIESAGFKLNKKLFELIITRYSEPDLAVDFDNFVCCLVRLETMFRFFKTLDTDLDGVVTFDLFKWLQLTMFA", "T1 sequence (P04574 1-266 partner)": "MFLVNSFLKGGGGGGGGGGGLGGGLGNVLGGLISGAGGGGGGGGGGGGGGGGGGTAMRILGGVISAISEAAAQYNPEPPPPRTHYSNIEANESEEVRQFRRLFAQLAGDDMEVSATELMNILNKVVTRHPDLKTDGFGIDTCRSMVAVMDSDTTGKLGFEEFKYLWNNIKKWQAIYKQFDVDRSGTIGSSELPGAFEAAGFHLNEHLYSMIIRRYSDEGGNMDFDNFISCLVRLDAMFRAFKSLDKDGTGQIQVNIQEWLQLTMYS", "experiment": "Calpain I incubation inhibition assay", "format": "biochemical, porcine", "conditions": "Table 4, cross reactivity of caspase inhibitors; listed as Cbz-Leu-Glu-Thr-AAsp-trans-CH═CH—COOEt", "description": "Calpain I. Irreversible kinetic assays were performed by the incubation method with calpain I from porcine erythrocytes. […] At various time intervals 50 μL aliquots were withdrawn from the incubation mixture and added to 200 μL enzyme buffer containing Suc-Leu-Tyr-AMC (1.6 mM). […] Pseudo first-order rate constants (kobs) were obtained from plots of ln vt/vo versus time."}, "Caspase-3": {"molecular_target": "T2, Caspase-3 (Homo sapiens, UniProt P42574)", "T2 sequence (P42574 29-175 limits assumed)": "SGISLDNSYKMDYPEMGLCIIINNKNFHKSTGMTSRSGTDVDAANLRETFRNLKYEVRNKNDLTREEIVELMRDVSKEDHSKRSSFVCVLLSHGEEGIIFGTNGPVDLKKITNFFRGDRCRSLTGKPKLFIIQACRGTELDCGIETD", "T2 sequence (P42574 176-277 limits assumed)": "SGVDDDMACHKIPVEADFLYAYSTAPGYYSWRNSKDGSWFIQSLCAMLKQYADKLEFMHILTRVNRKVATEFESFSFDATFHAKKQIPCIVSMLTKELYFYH", "experiment": "Caspase-3 progress curve inhibition assay", "conditions": "second-order rate constant; Ac-DEVD-AMC substrate; Pipes buffer pH 7.2"}, "Caspase-9": {"molecular_target": "T3, Caspase-9 (Homo sapiens, UniProt P55211)", "T3 sequence (P55211 1-315 limits assumed)": "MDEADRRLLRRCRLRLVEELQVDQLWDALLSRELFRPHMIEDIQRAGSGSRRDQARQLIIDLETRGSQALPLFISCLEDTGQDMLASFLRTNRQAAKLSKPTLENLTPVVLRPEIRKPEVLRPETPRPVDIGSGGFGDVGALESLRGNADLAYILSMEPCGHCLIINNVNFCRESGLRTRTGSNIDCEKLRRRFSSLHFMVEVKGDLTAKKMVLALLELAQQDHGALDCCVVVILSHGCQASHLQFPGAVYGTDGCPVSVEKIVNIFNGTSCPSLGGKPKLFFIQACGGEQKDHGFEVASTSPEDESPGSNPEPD", "T3 sequence (P55211 331-416 limits assumed)": "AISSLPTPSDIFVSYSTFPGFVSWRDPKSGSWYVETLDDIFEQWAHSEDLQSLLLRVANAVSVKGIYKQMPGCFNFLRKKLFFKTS", "experiment": "Caspase-9 progress curve inhibition assay", "conditions": "second-order rate constant; Ac-LEHD-AFC substrate; Hepes buffer pH 7.0 with 0.7 M sodium citrate"}},
  "data": [
    {"compound": "CCOC(=O)/C=C/C(=O)N(CC(=O)O)NC(=O)[C@@H](NC(=O)[C@H](CCC(=O)O)NC(=O)[C@H](CC(C)C)NC(=O)OCc1ccccc1)[C@@H](C)O", "note": "(relative stereo) [Cbz-Leu-Glu-Thr-AAsp-CH═CH—COOEt, N^2—(N-Berzyloxycarbonylleucylglutamylthreonyl)-N^1-carboxymethyl-N^1-trans-(3-ethoxycarbonylpropenoyl)hydrazine]", "values": [
      {"measurement": "k2 Cathepsin B", "setting": "Cathepsin B", "value": "<10", "unit": "M⁻¹ s⁻¹"},
      {"measurement": "k2 Calpain", "setting": "Calpain I", "value": "<10", "unit": "M⁻¹ s⁻¹"},
      {"measurement": "k2 Caspase-3", "setting": "Caspase-3", "value": "5,560 M^−1s^−1"},
      {"measurement": "k2 Caspase-9", "setting": "Caspase-9", "value": 37, "unit": "M⁻¹ s⁻¹"}
    ]}
  ]
}
